Experimental data from PubChem BioAssay (NCI).
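Exposure lasted 48 hours, with cells grown in 96-well plates and compounds tested at five concentrations. Here, GI50 denotes the concentration required for 50% inhibition of growth. TGI is the concentration that stops growth completely.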

What was measured:
Experiment in all cases: NCI-60 cell line screen, 48 h
786-0 renal = test system: 786-0 renal
HOP-62 NSCLC = test system: HOP-62 NSCLC
NCI-H460 lung = test system: NCI-H460 lung
OVCAR-5 ovarian = test system: OVCAR-5 ovarian
HT29 colon = test system: HT29 colon
DU-145 prostate = test system: DU-145 prostate
SN12C renal = test system: SN12C renal
RXF 393 renal = test system: RXF 393 renal
RPMI-8226 leukemia = test system: RPMI-8226 leukemia
SK-MEL-2 melanoma = test system: SK-MEL-2 melanoma
NCI-H23 lung = test system: NCI-H23 lung
OVCAR-4 ovarian = test system: OVCAR-4 ovarian

Structure (SMILES) | TGI (786-0 renal) [µM] | TGI (HOP-62 NSCLC) [µM] | TGI (NCI-H460 lung) [µM] | TGI (OVCAR-5 ovarian) [µM] | TGI (HT29 colon) [µM] | TGI (DU-145 prostate) [µM] | TGI (SN12C renal) [µM] | TGI (RXF 393 renal) [µM] | TGI (RPMI-8226 leukemia) [µM] | TGI (SK-MEL-2 melanoma) [µM] | TGI (NCI-H23 lung) [µM] | TGI (OVCAR-4 ovarian) [µM] | GI50 (DU-145 prostate) [µM] | GI50 (NCI-H23 lung) [µM]
C=CCC(CNC(=O)OCc1ccccc1)O[Si](C)(C)C(C)(C)C (stereo not drawn) | 98.7 | > 100 | > 100 | 71.6 | 59.1 | > 100 | > 100 | 47.6 | 64.9 | 34.9 | > 100 | > 100 |  | 
O=C1/C(=C/c2ccccc2)CCc2ccc(Cl)nc21 | 21.8 | 42 | > 64 | 33.4 | 3.78 | 24.4 | 18.6 | 24.8 | 7.88 | 37.8 | 45.5 | > 83.5 |  | 
Cc1cc2ccccc2c[n+]1CC(O)C[n+]1cc2ccccc2cc1C | > 100 | > 100 | > 100 | > 100 | > 100 | > 100 | > 100 | > 100 | > 100 | > 100 | > 100 | > 100 |  | 
CC1(C)O[C@@H](CO)[C@H]([C@@]23OC[C@H]4OC(C)(C)OC4[C@@H]2OC(C)(C)O3)O1 (stereo partly drawn) | > 100 | > 100 | > 100 | > 100 | > 100 | > 100 | > 100 | > 100 | > 100 | > 100 | > 100 | > 100 |  | 
O=C(CC(O)(C(F)(F)F)C(F)(F)F)C(CCCl)C(O)(C(F)(F)F)C(F)(F)F (stereo not drawn) | > 100 | > 100 | 88.6 | > 100 | 91.5 | > 100 | 67 | 70.9 | 61.1 | > 100 | 83.9 | > 100 |  | 
Cc1cc2ccccc2n1CC(=O)NCC(C)C | > 100 | > 100 | > 100 | > 100 | > 100 | > 100 | > 100 | > 100 | > 100 | > 100 | > 100 | > 100 |  | 
Nc1ccc2c(c1)C(=O)c1ccccc1-2 | > 100 | > 100 | > 100 | > 100 | > 100 | > 100 | > 100 | > 100 | > 100 | > 100 | > 100 | > 100 |  | 
CC1=C(C(=O)OCCc2ccc([N+](=O)[O-])cc2)C(c2ccccc2[N+](=O)[O-])C(C(=O)OC(C)C)=C(C)N1 (stereo not drawn) | 17.9 | > 100 | > 100 | > 100 | > 100 | > 100 | > 100 | 35.9 | > 100 | 40.9 | > 100 | > 100 |  | 
O=C(N/N=C\c1cccc2ccccc12)Nc1ccc([N+](=O)[O-])cc1 | > 37.8 | 59.2 | > 76.6 | > 71 | > 100 | > 60.7 | > 73 | > 42.6 | > 100 | > 68.7 | > 60.2 | > 71.6 |  | 
COc1ccc(/C=C/c2cc(O)cc(OC)c2)cc1 | > 100 | > 100 | > 100 | > 100 | > 100 | > 100 | > 100 | > 100 | 78.7 | > 100 | > 100 | > 100 |  | 
c1ccc(CCN2CCCCCC2)nc1 | > 100 | > 100 | > 100 | > 100 | > 100 | > 100 | > 100 | > 100 | > 100 | > 100 | > 100 | > 100 |  | 
COC(=O)[C@H](C)N1C(=O)N[C@@H](C(C)C)C1=O | > 100 | > 100 | > 100 | > 100 | > 100 | > 100 | > 100 | > 100 | > 100 | > 100 | > 100 | > 100 |  | 
CN(CCc1ccc(Cl)c(Cl)c1)[C@H]1CCCC[C@H]1N1CCCC1 | > 100 | > 100 |  | > 100 | > 100 | > 100 | > 100 | > 100 | > 100 | > 100 | > 100 | > 100 |  | 
CCOC(=O)c1ccc2nc(NC(=O)COC(=O)CSc3nc(C)cc(C)n3)sc2c1 | > 100 | 50.5 | > 100 | 86.1 | > 100 | > 100 | > 100 | > 100 | > 100 | > 100 | > 100 | > 100 |  | 
O=C(/C=C/c1ccc(-c2ccccc2[N+](=O)[O-])o1)NCc1ccc(C(=O)NCCc2ccccc2)cc1 | > 100 | > 100 | > 100 | > 100 | > 100 | > 100 | > 100 | > 100 | > 100 | > 100 | > 100 | > 100 |  | 
OC1CCCC1C(O)(C(F)(F)F)C(F)(F)F (stereo not drawn) | > 100 | > 100 | > 100 | > 100 | > 100 | > 100 | > 100 | > 100 | > 100 | > 100 | > 100 | > 100 |  | 
CC(=O)/C=C/C=C(\C)CC/C=C(\C)CC(C)C | 97.3 | > 100 | > 100 | > 100 | > 100 | > 100 | 96.2 | 30.3 | 38.4 | 42.3 | 54.9 | > 100 |  | 
CCOC(=O)c1ccc(C(=O)C(C(C)=O)C(=O)OC(C)(C)C)n1C (stereo not drawn) | > 100 | > 100 | > 100 | > 100 | > 100 | > 100 | > 100 | > 100 | > 100 | > 100 | > 100 | > 100 |  | 

Structure (SMILES) | TGI (786-0 renal) [µM] | TGI (HOP-62 NSCLC) [µM] | TGI (NCI-H460 lung) [µM] | TGI (OVCAR-5 ovarian) [µM] | TGI (HT29 colon) [µM] | TGI (DU-145 prostate) [µM] | TGI (SN12C renal) [µM] | TGI (RXF 393 renal) [µM] | TGI (RPMI-8226 leukemia) [µM] | TGI (SK-MEL-2 melanoma) [µM] | TGI (NCI-H23 lung) [µM] | TGI (OVCAR-4 ovarian) [µM] | GI50 (DU-145 prostate) [µM] | GI50 (NCI-H23 lung) [µM]
CC(=O)O[C@H]1C#C/C=C\C#CC[C@@H]2C(=O)N(C(=O)OC(C)(C)C)[C@@H]12 | 51.7 | 39.6 | 38.7 | > 100 | > 100 | 54.8 | > 71.6 | 56.4 | > 75.8 | > 93 | > 69 | > 100 |  | 
CC[C@]12C=CCN3CCC4(c5cc(N=Nc6ccccc6)c(OC)cc5N(C)[C@H]4[C@@](O)(C(=O)OC)[C@@H]1OC(C)=O)[C@@H]32 (stereo partly drawn) | 32.4 | 35.2 | 33.5 | 41.1 | 33.8 | 34.9 | 35.7 | 30.9 | 59.3 | 31.4 | 30.5 | 38.8 |  | 
Cc1nnc2cc(C(=O)O)c3ccccc3n2c1=O | > 10 | > 10 | > 10 | > 10 | > 10 | > 10 | > 10 | > 10 | > 10 | > 10 | > 10 | > 10 |  | 
O=C(O)C(CCc1ccccn1)c1ccccc1 (stereo not drawn) | > 100 | > 100 | > 100 | > 100 | > 100 | > 100 | > 100 | > 100 | > 100 | > 100 | > 100 | > 100 |  | 
Cc1ccc(S(=O)(=O)n2cncc2CO)cc1 | > 100 | > 100 | > 100 | > 100 | > 100 | > 100 | > 100 | > 100 | > 100 | > 100 | > 100 | > 100 |  | 
CC(CCC(=O)O)[C@H]1CCC2[C@H]3C(CC[C@@]21C)[C@@]1(C)CCC(O)C[C@H]1C[C@@H]3O (stereo partly drawn) | > 100 | > 100 | > 100 | > 100 | > 100 | > 100 | > 100 | > 100 | > 100 | > 100 | > 100 | > 100 |  | 
Cc1cc(S(=O)(=O)Nc2nnc3c(C(F)(F)F)cc(Cl)cn23)c(S)cc1Cl | > 100 | > 100 | > 100 | > 100 | > 100 | > 100 | > 100 | > 100 | > 100 | > 100 |  | > 100 |  | 
Cc1cc(Cc2c(F)c(F)c(Cc3cc(C)no3)c(F)c2F)on1 | > 100 | 62.8 |  | > 100 | > 100 | > 100 | > 100 | > 100 | > 100 | > 100 | > 100 | > 100 |  | 
Clc1nc(-[n+]2ccc(-c3ccncc3)cc2)nc(Nc2ccccc2)c1Cl | > 100 | > 100 | > 100 | > 100 | > 100 | > 100 | > 100 | > 100 | > 100 | > 100 | > 100 | > 100 |  | 
C/C(=N\NC(N)=O)C(CN1CCCCC1)C(c1ccccc1)c1c(O)c2ccccc2oc1=O (stereo not drawn) | > 59.5 | > 100 | > 100 | > 100 | > 100 | > 100 | > 100 | > 100 | > 100 | > 100 | > 100 | > 100 | > 100 | > 100
O=C(O)/C=C(/CC(=O)O)C(=O)O | 33.3 | 40.1 | > 100 | > 100 | 59.2 | 45.7 | 40.7 | 34.8 | 37 | 41.9 | 57.2 | 65.3 |  | 
COC(=O)c1ccc(-c2nc(C#N)c(N)o2)cc1 | > 100 | > 100 | > 100 | > 100 | > 100 | > 100 | > 100 | > 100 | > 100 | > 100 | > 100 | > 100 |  | 
CCC1(CC)C(=O)CC[C@@]2(C)C1=CC[C@H]1[C@@H]3CC[C@H](O)[C@@]3(C)CC[C@@H]12 | 29.6 | 37 | 32.2 | > 100 | 28.5 | 85.4 | 31.6 | > 100 | 32.4 | > 100 | > 100 | > 100 |  | 
CCN(CC)CCO/N=C1\CC[C@H]2[C@@H]3CC=C4C[C@@H](O)CC[C@]4(C)[C@H]3CC[C@]12C | 31.5 | 35.2 | 29.8 | > 100 | 22.5 | 65.7 | > 100 | 34.1 | 47.6 | 48.4 | 33.4 | 71.1 |  | 
C/C(O)=C(\C=N\C(N)=S)C(=O)Nc1ccccc1C | > 100 | > 100 | > 100 | > 100 | > 100 | > 100 | > 100 | > 100 | > 100 | > 100 | > 100 | > 100 |  | 
O=C1NC(=S)N/C1=C/c1ccccc1O | > 100 | > 100 |  | > 100 | > 100 | > 100 | > 100 | > 100 | > 100 | > 100 | > 100 | > 100 |  | 
CCCCC[C@@H]1OCO[C@@]2(C)/C=C(C)/C=C/C(=O)O[C@H]([C@@H](C)[C@@H](O)[C@H](C)[C@@]3(O)C[C@@H](O[C@H]4C[C@@H](O)[C@H](O)[C@@H](C)O4)[C@H](C)[C@@H](C)O3)[C@@H](OC)/C=C/C=C(\C)C[C@@H]1[C@@H]2O (stereo in doubt) | 0.676 | 7.02 | 5.3 | 0.215 | 0.0544 | 7.9 | 3.49 | 1.19 | 50 | < 0.005 | 11.5 | 8.38 |  | 
